# Test system: liver CYP27A1 mRNA
# Experiment: Example 1: liver CYP27A1 mRNA expression, real-time PCR
# Type: in vivo, Male Golden Syrian hamsters
# Settings: relative expression in reference to a housekeeping gene, Example 1, 4 weeks
# Experimental: Experiments were also conducted to determine the effect on the expression of genes associated with cholesterol in the liver and intestine. Total RNA was extracted and mRNA was converted to cDNA. The mRNA expression was measured by real-time PCR with four repeats and calculated as relative expression in reference to internal control of a housekeeping gene for each sample. Table 5, FIG. 8b and FIG. 8c summarize the effect of BBRCI and PS on the mRNA expression of CYP7A1 and CYP27A1 in the liver. BBRCI and PS alone tended to increase mRNA expression of both genes. CYP7A1 and CYP27A1 are two rate-limiting enzymes controlling bile acid synthesis, which is one mechanism through which the body removes cholesterol by converting it into bile acids. When BBRCI and PS were combined, a synergistic action appeared to happen.
smiles,measurement,value
"COc1ccc2cc3[n+](cc2c1OC)CCc1cc2c(cc1-3)OCO2 [BBRCI, Berberine chloride]",CYP27A1 mRNA expression,1.27 ± 0.31

# Source: patent US8895079B2, “Combinations of botanical extracts for promoting cardiovascular health” (National Research Council of Canada, priority 2005, dated 2014)
